# Experimental data: US9783545B2, “Pyrazolopyridazines and methods for treating retinal-degenerative diseases and hearing loss associated with usher syndrome” (Usher III Initiative, Inc., priority 2012, dated 2017)
# Legend:
# N48K Clarin-1 [1] = biological target: T1, N48K Clarin-1 (Homo sapiens, UniProt P58418, N48K); assay: Restoration of expression of N48K Clarin-1, 24 hour incubation (high content imaging of HA-tagged N48K Clarin-1); format: cell-based; conditions: HEK293-Clarin-1 N48K-HA D9 cell line, 24 hr incubation with compound; read-out: IC50 (the source's name)
# T1 construct: expressed in transfected cells
# T1 sequence (P58418 1-232 N48K): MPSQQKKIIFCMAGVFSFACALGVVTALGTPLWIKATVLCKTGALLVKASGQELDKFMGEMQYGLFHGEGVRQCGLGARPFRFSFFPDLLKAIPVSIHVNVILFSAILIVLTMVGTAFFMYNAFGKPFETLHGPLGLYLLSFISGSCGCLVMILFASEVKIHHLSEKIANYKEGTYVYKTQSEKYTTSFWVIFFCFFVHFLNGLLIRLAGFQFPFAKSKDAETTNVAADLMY
# Experimental: Assay Method Showing Activity of Compounds of the Invention that Restore Expression of N48K Clarin-1 (24 hour incubation)
# (§1) Clarin-1 is the protein encoded by the gene mutated in Usher III Syndrome (Adato et al., 2002). The most prevalent mutation in Clarin-1 in North America is N48K, which is reported to cause loss of glycosylation and a trafficking defect (Tian et al., 2009). […] Thus it is believed that restoring the trafficking of N48K Clarin-1 to the cell surface provides an avenue of intervention for Usher III Sydrome.
# (§2) In a typical experiment, these cells were seeded on collagen-coated 96-well plates at a cell density of 20,000 cells per well in Dulbecco's Modified Eagle Medium (DMEM) contain 10% fetal bovine serum in a humidified incubator at 37° C., 5% CO2. After an overnight incubation, compounds were added for a 24 hr incubation in DMEM medium contain 10% fetal bovine serum in a humidified incubator at 37° C., 5% CO2. As a negative control, DMSO was used at 0.25% final concentrations. Compounds were typically tested in triplicate fashion. After the 24 hr incubation with compounds, the cells were fixed by the addition of 10% buffered formalin to the wells to achieve a final concentration of 4% formalin. After a 20 min fixation at room temperature, wells were washed three times with phosphate-buffered saline (PBS) containing Triton X-100 (0.02 phosphate, 150 mM NaCl, 0.1% Triton X-100).
# (§3) The HA-tagged N48K Clarin-1 was detected with an antibody against the HA tag (HA.11 Clone 16B12 Monoclonal antibody, Covance #MMS-101P) at a dilution of 1:1000 in PBS containing Triton X-100. After a 90 min incubation, wells were washed three times with PBS containing Triton X-100, and a secondary antibody (Goat anti-mouse IgG-Cy3 (1.5 mg/ml), Jackson IR Europe #115165003) was added to the wells at a dilution of 1:250 in PBS containing Triton X-100 for 45 min. Wells were subsequently washed three times with PBS containing Triton X-100, and a final staining for nuclei was performed by the addition of DAPI (4′,6-diamidino-2-phenylindole) at a dilution of 1:10,000. The imaging of the stained cells was performed on an InCell 1000 High Content Imager (GE Healthcare), reading out the Cy3 channel for N48K Clarin-1 and the DAPI channel for nuclei. The images were analyzed and quantitated using a specific algorithm. This algorithm measured the HA-Clarin-1 staining for each cell based on the additional nuclear segmentation of the DAPI signal (FIG. 1). This algorithm measured the intensity per cell, and thus it is less sensitive for variation in cell number. Per well, approximately 2,000 cells were measured to achieve an average density per cell measurement. FIG. 1 illustrates high content analysis. DAPI-stained nuclei are used to perform segmentation of the image into individual cells. The density observed in the N48K Clarin-1 channel (Cy3) is then calculated per cell averaged over a field.
# N48K Clarin-1 [2] = biological target: T1, N48K Clarin-1; assay: Restoration of expression of N48K Clarin-1, 2 hour incubation then 22 hr fresh medium (high content imaging of HA-tagged N48K Clarin-1); format: cell-based; conditions: HEK293-Clarin-1 N48K-HA D9 cell line, 2 hr incubation with compound, then 22 hr in fresh medium
# Experimental: An Assay Method Showing Activity of Compounds of the Invention that Restore Expression of N48K Clarin-1(2 hour incubation)
# as §1
# as §2, with “for a 2 hr incubation” for “for a 24 hr incubation”, “After the 2 hr incubation” for “After the 24 hr incubation”, “cells were incubated in fresh medium for 22 hr. The cells were then fixed by” for “cells were fixed by”
# as §3, with “images are” for “images were”, “measurement.” for “measurement. FIG. 1 illustrates high content analysis. DAPI-stained nuclei are used to perform segmentation of the image into individual cells. The density observed in the N48K Clarin-1 channel (Cy3) is then calculated per cell averaged over a field.”
EC50 (N48K Clarin-1 [1]) [µM],IC50 (N48K Clarin-1 [2]) [µM],SMILES
≤ 2,≤ 4,"O=C1CCCN1CCn1nc(-c2ccccc2)c2c(Cl)c(-c3ccccc3)nnc21 [IIb, 1-[2-(4-chloro-3,5-diphenyl-pyrazolo[3,4-c]pyridazin-1-yl)ethyl]pyrrolidin-2-one]"
≤ 2,≤ 4,"CS(=O)(=O)CCn1nc(-c2ccccc2)c2c(Cl)c(-c3ccccc3)nnc21 [IIq, 4-chloro-1-(2-methylsulfonylethyl)-3,5-diphenyl-pyrazolo[3,4-c]pyridazine]"
≤ 2,≤ 4,"Cn1cc(Cn2nc(-c3ccccc3)c3c(Cl)c(-c4ccccc4)nnc32)cn1 [IIg, 4-chloro-1-[(1-methylpyrazol-4-yl)methyl]-3,5-diphenyl-pyrazolo[3,4-c]pyridazine]"
≤ 2,≤ 4,"Clc1c(-c2ccccc2)nnc2c1c(-c1ccccc1)nn2C[C@H]1CCCO1 [IIj, 4-chloro-3,5-diphenyl-1-[[(2R)-tetrahydrofuran-2-yl]methyl]pyrazolo[3,4-c]pyridazine]"
≤ 2,≤ 4,"CC1(Cn2nc(-c3ccccc3)c3c(Cl)c(-c4ccccc4)nnc32)COC1 [IIf, 4-chloro-1-[(3-methyloxetan-3-yl)methyl]-3,5-diphenyl-pyrazolo[3,4-c]pyridazine]"
≤ 2,≤ 4,"Clc1c(-c2ccccc2)nnc2c1c(-c1ccccc1)nn2Cc1cocn1 [IIh, 4-[(4-chloro-3,5-diphenyl-pyrazolo[3,4-c]pyridazin-1-yl)methyl]oxazole]"
≤ 2,≤ 4,"FCCn1nc(-c2ccccc2)c2c(Cl)c(-c3ccccc3)nnc21 [IIl, 4-chloro-1-(2-fluoroethyl)-3,5-diphenyl-pyrazolo[3,4-c]pyridazine]"

# The remaining lines, values behind:
SMILES,EC50 (N48K Clarin-1 [1]) [µM],IC50 (N48K Clarin-1 [2]) [µM]
"Fc1cccc(-c2nn(CCn3ccnc3)c3nnc(-c4ccccc4)c(Cl)c23)c1 [IIs, 4-chloro-3-(3-fluorophenyl)-1-(2-imidazol-1-ylethyl)-5-phenyl-pyrazolo[3,4-c]pyridazine]",≤ 2,≤ 4
"CN1CCN(CCn2nc(-c3cnn(C)c3)c3c(Cl)c(-c4ccccc4)nnc32)CC1 [Ic, 4-chloro-3-(1-methyl-1H-pyrazol-4-yl)-1-(2-(4-methylpiperazin-1-yl)ethyl)-5-phenyl-1H-pyrazolo[3,4-c]pyridazine]",≤ 2,4 to 8
"Cn1cncc1Cn1nc(-c2ccccc2)c2c(Cl)c(-c3ccccc3)nnc21 [IIa, 4-chloro-1-[(3-methylimidazol-4-yl)methyl]-3,5-diphenyl-pyrazolo[3,4-c]pyridazine]",≤ 2,4 to 8
"Clc1c(-c2ccccc2)nnc2c1c(-c1ccccc1)nn2Cc1cccnc1 [IIn, 4-chloro-3,5-diphenyl-1-(3-pyridylmethyl)pyrazolo[3,4-c]pyridazine]",≤ 2,≤ 4
"COC/C=C/c1nn(CCN2CCN(C)CC2)c2nnc(-c3ccccc3)c(Cl)c12 [Ii, (E)-4-chloro-3-(3-methoxyprop-1-en-1-yl)-1-(2-(4-methylpiperazin-1-yl)ethyl)-5-phenyl-1H-pyrazolo[3,4-c]pyridazine]",≤ 2,≤ 4
"CN1CCN(CCn2nc(-c3ccc4c(c3)CCO4)c3c(Cl)c(-c4ccccc4)nnc32)CC1 [Il, 4-chloro-3-(2,3-dihydrobenzofuran-5-yl)-1-(2-(4-methylpiperazin-1-yl)ethyl)-5-phenyl-1H-pyrazolo[3,4-c]pyridazine]",≤ 2,≤ 4
"CN1CCN(CCn2nc(-c3cccn3C)c3c(Cl)c(-c4ccccc4)nnc32)CC1 [Ik, 4-chloro-3-(1-methyl-1H-pyrrol-2-yl)-1-(2-(4-methylpiperazin-1-yl)ethyl)-5-phenyl-1H-pyrazolo[3,4-c]pyridazine]",≤ 2,≤ 4
"Clc1c(-c2ccccc2)nnc2c1c(-c1ccccc1)nn2CCn1ccnc1 [IIc, 4-chloro-1-(2-imidazol-1-ylethyl)-3,5-diphenyl-pyrazolo[3,4-c]pyridazine]",≤ 2,≤ 4
"Cn1nc(N2CCCC2)c2c(Cl)c(-c3ccccc3)nnc21 [XIIIc, 4-chloro-1-methyl-5-phenyl-3-pyrrolidin-1-yl-pyrazolo[3,4-c]pyridazine]",–,8 to 12
